From PMC10938758, “A phenotypic screen of the Global Health Priority Box identifies an insecticide with anthelmintic activity” (Parasites & Vectors, 2024)
Where two headings read alike, the source gives them in different places.

Experiments:
[1] = test system: exsheathed third-stage larvae (xL3s) of Haemonchus contortus; test: Primary screen, H. contortus larval development and phenotype (microscopy)
Experimental: An established high-throughput phenotypic screening assay was used to test the anthelmintic activity of compounds on H. contortus xL3s. Compounds were assessed for motility inhibition at a concentration of 20 µM in LB*. […] A solution of LB* + 1% (v/v) DMSO was used as a negative control. Test compounds were distributed amongst one flat-bottom, 384-well microplate (cat no. 3860; Corning, Corning, NY, USA). Eighty xL3s of H. contortus in 20 µl of LB* were added to each well to give a final volume of 40 µl. The plate was then placed in a CO2 incubator (10% [v/v] CO2, 38 °C, > 90% humidity). At 90 h, worm activity was captured using a WMicroTracker ONE unit (Phylumtech, Sunchales, Santa Fe, Argentina). Over a period of 15 min, disturbance of an infrared beam in individual wells was recorded as a worm ‘activity count’. Activity counts were then normalised to the positive and negative controls using the GraphPad Prism program (v.9.1.0 GraphPad Software, San Diego, CA, USA). The screening plate was then returned to the incubator (10% [v/v] CO2, 38 °C, > 90% humidity) for an additional 72 h. At 168 h, worms were fixed with 40 µl of Lugol solution (Sigma-Aldrich, St. Louis, MO, USA). Compounds were then assessed (microscopically) for inhibition of larval development and/or induction of a non-wild-type phenotype in H. contortus worms. […] The performance of the assay was monitored using the Z′-factor [58] calculated using data for the negative (DMSO) and positive (M-666) control compounds on individual plates.

H. contortus xL3s = test: H. contortus dose-response assay, xL3 motility; design: species or system Haemonchus contortus; settings: xL3s, 90 h of incubation; for IC50: read-out: IC50, H. contortus larval motility inhibition
Experimental: The dose–response assay for H. contortus followed a well-established protocol; it was employed to evaluate the potency of hit compounds against this nematode. Test compounds were assessed individually for an effect on the motility of xL3s (10-point, twofold serial dilution in LB*, 40–0.16 μM). One compound, monepantel (prepared in the same manner as the test compounds), was used as a positive control. A solution of LB* was used as a negative control. The test and positive-control compounds were arrayed in triplicate across individual flat-bottom 96-well microplates, with six wells on each plate containing the negative control. Three hundred xL3s of H. contortus in 50 μl of LB* were added to each well to give a final volume of 100 μl. Plates were then placed in a CO2 incubator (10% [v/v] CO2, 38 °C, > 90% humidity). […] Over a period of 15 min, disturbance of an infrared beam in individual wells was recorded as a worm activity count. Raw activity counts for each well were normalised to the negative controls. The compound concentrations were log10-transformed and fitted using a variable-slope four-parameter equation, using the ordinary least squares fit model, employing GraphPad Prism (v.9.1.0). Larval development was established at 168 h of incubation with compound, as described previously. The development inhibition and phenotypes of larvae were examined microscopically. A one-way analysis of variance (ANOVA) with a Tukey multiple comparison test or an unpaired t-test was used to establish statistically significant differences in larval motility or development.

[2] = test system: rat hepatoma (FAO cell line) cells; settings: cited from earlier work
H. contortus larvae = test: H. contortus dose-response assay, larval development; design: species or system Haemonchus contortus; settings: 168 h of incubation, read-out: IC50, inhibition of H. contortus larval development
Experimental: The dose–response assay for H. contortus followed a well-established protocol; it was employed to evaluate the potency of hit compounds against this nematode. Test compounds were assessed individually for an effect on the motility of xL3s (10-point, twofold serial dilution in LB*, 40–0.16 μM). One compound, monepantel (prepared in the same manner as the test compounds), was used as a positive control. A solution of LB* was used as a negative control. The test and positive-control compounds were arrayed in triplicate across individual flat-bottom 96-well microplates, with six wells on each plate containing the negative control. Three hundred xL3s of H. contortus in 50 μl of LB* were added to each well to give a final volume of 100 μl. Plates were then placed in a CO2 incubator (10% [v/v] CO2, 38 °C, > 90% humidity). After 168 h of incubation, worm activity was captured using a WMicroTracker ONE unit. Over a period of 15 min, disturbance of an infrared beam in individual wells was recorded as a worm activity count. Raw activity counts for each well were normalised to the negative controls. The compound concentrations were log10-transformed and fitted using a variable-slope four-parameter equation, using the ordinary least squares fit model, employing GraphPad Prism (v.9.1.0). Larval development was established at 168 h of incubation with compound, as described previously. The development inhibition and phenotypes of larvae were examined microscopically. A one-way analysis of variance (ANOVA) with a Tukey multiple comparison test or an unpaired t-test was used to establish statistically significant differences in larval motility or development.

[3] = test system: adult females of H. contortus; test: Motility of H. contortus adult females (video scoring); design: species or system Haemonchus contortus; settings: 40 μM
Experimental: The activity of two test compounds was assessed on adult female specimens of H. contortus in an established assay. The compound was added in triplicate to the wells of a 24-well plate (Corning, USA) at a concentration of 40 μM in 500 μl of RPMI*. Two positive-control compounds, monepantel and moxidectin, and a negative control containing 1% (v/v) DMSO only were included in triplicate on the same plate. Three adult females were added to each of the triplicate wells containing either the test compound or the controls and placed in a CO2 incubator (10% [v/v] CO2, 38 °C, > 90% relative humidity) for 24 h. A video recording (30 s) of each well was taken at 3 h, 6 h, 12 h and 24 h during the total incubation period to assess the reduction in worm motility, which was scored as 3 (‘good’), 2 (‘low’), 1 (‘very low’) or 0 (‘no movement’; cf.). For each test or control compound, the motility scores for each of the triplicate wells were calculated, normalised with reference to the negative control (100% motility) and recorded as a percentage. A two-way ANOVA with a Tukey multiple comparison test was used to establish statistically significant differences in worm motility.

C. elegans young adults = test: C. elegans dose-response assay, motility; design: species or system Caenorhabditis elegans; settings: 40 h of incubation
Experimental: The dose–response assay for C. elegans followed a well-established protocol and was employed to evaluate the potency of hit compounds against this nematode. Test and positive-control compounds as well as negative controls were prepared in 96-well microplates (cf.). One hundred C. elegans in 50 μl of LB* were added to each well to give a final volume of 100 μl. Plates were then placed in an incubator at 20 °C for 40 h. At 40 h, worm activity was captured using a WMicroTracker ONE unit. Raw activity counts for each well were normalised to the negative controls. The compound concentrations were log10-transformed and fitted using a variable-slope four-parameter equation, using the ordinary least squares fit model, employing GraphPad Prism (v.9.1.0). A one-way ANOVA with a Tukey multiple comparison test or an unpaired t-test was used to establish statistically significant differences in larval motility.

[4] = H. contortus larvae; 20 µM; 168 h
[5] = Haemonchus contortus, 168 h, H. contortus, 20 µM, read-out: Larval development inhibition, %

CO[C@H]1C[C@H](O[C@@H]2/C(C)=C/C[C@@H]3C[C@@H](C[C@]4(CC[C@H](C)[C@@H](C5CCCCC5)O4)O3)OC(=O)[C@@H]3C=C(C)/C(=N/O)[C@H]4OC/C(=C\C=C\[C@@H]2C)[C@]43O)O[C@@H](C)[C@@H]1O [MMV002231, selamectin]
Abnormal phenotype [1, 4]: Cur | inhibition at 20 µM [1, 5]: ≥ 90%

C=C(C)[C@H]1Cc2c(ccc3c2O[C@@H]2COc4cc(OC)c(OC)cc4[C@@H]2C3=O)O1 [MMV002519, rotenone]
Abnormal phenotype [1, 4]: Str | Induction of an abnormal phenotype (in words) [1, 4]: induced an abnormal phenotype | inhibition at 20 µM ([1]; Haemonchus contortus, 168 h, read-out: Larval development inhibition; %): 100%

O=C(Nc1ccc(Cl)c(C(F)(F)F)c1)Nc1ccc(Cl)c(C(F)(F)F)c1 [MMV027339]
Induction of an abnormal phenotype (in words) [1, 4]: did not inhibit development or induce an abnormal phenotype | IC50 (H. contortus xL3s): > 40 µM

CCc1nn(C)c(C(=O)NCc2ccc(Oc3ccc(C)cc3)cc2)c1Cl [MMV688934, tolfenpyrad]
Abnormal phenotype [1, 4]: Str | Induction of an abnormal phenotype (in words) [1, 4]: induced an abnormal phenotype | inhibition at 20 µM ([1]; Haemonchus contortus; H. contortus; 20 µM; 168 h; read-out: Larval development inhibition; %): 100% | Respiration in FAO cells [2]: inhibit respiration

CCOCn1c(-c2ccc(Cl)cc2)c(C#N)c(Br)c1C(F)(F)F [MMV1577458, chlorfenapyr]
Abnormal phenotype [1, 4]: Cur | Induction of an abnormal phenotype (in words) [1, 4]: induced an abnormal phenotype | inhibition at 20 µM [1, 5]: 100%

CO/N=C1\C[C@]2(C[C@@H]3C[C@@H](C/C=C(\C)C[C@@H](C)/C=C/C=C4\CO[C@@H]5[C@H](O)C(C)=C[C@@H](C(=O)O3)[C@]45O)O2)O[C@H](/C(C)=C/C(C)C)[C@H]1C [MMV1633828, moxidectin]
inhibition at 20 µM [1, 5]: ≥ 90%

COc1cc(/C=N/c2c(SC(F)(F)F)c(C#N)nn2-c2c(Cl)cc(C(F)(F)F)cc2Cl)ccc1O [MMV1794214]
Induction of an abnormal phenotype (in words) [1, 4]: did not inhibit development or induce an abnormal phenotype | IC50 (H. contortus larvae): > 40 µM | Reduction of motility of adult females of H. contortus ([3]; 3 h): ~ 0% | Reduction of motility of adult females of H. contortus ([3]; 6 h): ~ 0% | Reduction of motility of adult females of H. contortus ([3]; 12 h): ~23% | Reduction of motility of adult females of H. contortus ([3]; 24 h): ~15% | Maximum motility inhibition (MMI), H. contortus larvae (H. contortus xL3s): 70% | IC50 (H. contortus xL3s): 4.5 ± 1.1 µM

C[C@](C#N)(COc1cc(C#N)ccc1C(F)(F)F)NC(=O)c1ccc(SC(F)(F)F)cc1 [Monepantel, monepantel]
Abnormal phenotype [1, 4]: Coi | inhibition at 20 µM [1, 5]: 100% | IC50 (H. contortus larvae; Haemonchus contortus): 0.26 ± 0.03 µM | Reduction of motility of adult females of H. contortus ([3]; 3 h): ~ 0% | Reduction of motility of adult females of H. contortus ([3]; 6 h): ~23% | Reduction of motility of adult females of H. contortus ([3]; 12 h): ~66% | Reduction of motility of adult females of H. contortus ([3]; 24 h): ~100% | IC50 (H. contortus xL3s; Haemonchus contortus): 0.33 ± 0.12 µM | Maximum motility inhibition (MMI), H. contortus larvae (H. contortus xL3s): 95% | Maximum motility inhibition (MMI), C. elegans (C. elegans young adults): 95% | IC50 (C. elegans young adults; Caenorhabditis elegans, read-out: IC50, C. elegans young adult motility): 0.03 ± 0.01 µM

CO/N=C1\C[C@]2(C[C@@H]3C[C@@H](C/C=C(\C)C[C@@H](C)/C=C/C=C4\CO[C@@H]5[C@H](O)C(C)=C[C@@H](C(=O)O3)[C@]45O)O2)O[C@H](/C(C)=C/C(C)C)[C@H]1C [Moxidectin, moxidectin]
Larval development inhibition; % ([1]; H. contortus; 20 µM; 168 h): 100%

abamectin [MMV1577454]
Abnormal phenotype [1, 4]: Str
